Test results taken from patent US20100041089A1, “IMPROVED METHOD FOR DETECTING CHEMICAL […]” (priority 2006, published 2010).

Test system: yeast genes (expressed mRNA)
Assay: DNA chip measurement of expressed mRNA of yeast genes after culture with a toxic chemical substance
Type: cell-based, Saccharomyces cerevisiae S288C
Conditions: for level of expressed mRNA in the presence of chemical substance / level in the absence of chemical substance: cultured two hours with the chemical substance; for The level of expressed mRNA in the presence of chemical substance/The level of expressed mRNA in the absence of chemical substance: cultured two hours with substance
In short: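 Two-hour exposure of growing S. cerevisiae S288C (YPD, 25° C) to a sublethal toxicant preceded RNA isolation. Fluorescent cDNA was hybridized to a whole-genome array; a treated-to-untreated signal ratio of two or more was taken as significant.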

## [Cl][Hg][Cl] [(3), HgCl2]
Yeast gene YDR128W
  level of expressed mRNA in the presence of chemical substance / level in the absence of chemical substance: 1.4
Yeast gene YDR133C
  level of expressed mRNA in the presence of chemical substance / level in the absence of chemical substance: 2.9
Yeast gene YDR250C
  level of expressed mRNA in the presence of chemical substance / level in the absence of chemical substance: 0.9
Yeast gene YDR278C
  level of expressed mRNA in the presence of chemical substance / level in the absence of chemical substance: 0.9
Yeast gene YDR281C
  level of expressed mRNA in the presence of chemical substance / level in the absence of chemical substance: 0.4
Yeast gene YDR330W
  The level of expressed mRNA in the presence of chemical substance/The level of expressed mRNA in the absence of chemical substance: 1.2
Yeast gene YDR366C
  level of expressed mRNA in the presence of chemical substance / level in the absence of chemical substance: 0.8
Yeast gene YDR411C
  The level of expressed mRNA in the presence of chemical substance/The level of expressed mRNA in the absence of chemical substance: 1.8
Yeast gene YDR511W
  The level of expressed mRNA in the presence of chemical substance/The level of expressed mRNA in the absence of chemical substance: 0.9
Yeast gene YDR545W
  The level of expressed mRNA in the presence of chemical substance/The level of expressed mRNA in the absence of chemical substance: 0.6
Yeast gene YEL001C
  The level of expressed mRNA in the presence of chemical substance/The level of expressed mRNA in the absence of chemical substance: 1.4
Yeast gene YER004W
  The level of expressed mRNA in the presence of chemical substance/The level of expressed mRNA in the absence of chemical substance: 1.9
Yeast gene YER035W
  The level of expressed mRNA in the presence of chemical substance/The level of expressed mRNA in the absence of chemical substance: 1.6
Yeast gene YER079W
  The level of expressed mRNA in the presence of chemical substance/The level of expressed mRNA in the absence of chemical substance: 1.9
Yeast gene YER106W
  The level of expressed mRNA in the presence of chemical substance/The level of expressed mRNA in the absence of chemical substance: 1.3
Yeast gene YER158C
  The level of expressed mRNA in the presence of chemical substance/The level of expressed mRNA in the absence of chemical substance: 0.9
Yeast gene YER163C
  The level of expressed mRNA in the presence of chemical substance/The level of expressed mRNA in the absence of chemical substance: 1.2
Yeast gene YER175C
  The level of expressed mRNA in the presence of chemical substance/The level of expressed mRNA in the absence of chemical substance: 1.3
Yeast gene YFL006W
  The level of expressed mRNA in the presence of chemical substance/The level of expressed mRNA in the absence of chemical substance: 1.6
Yeast gene YFL010C
  The level of expressed mRNA in the presence of chemical substance/The level of expressed mRNA in the absence of chemical substance: 1.3
Yeast gene YFL024C
  The level of expressed mRNA in the presence of chemical substance/The level of expressed mRNA in the absence of chemical substance: 1.1
Yeast gene YFL032W
  The level of expressed mRNA in the presence of chemical substance/The level of expressed mRNA in the absence of chemical substance: 1.6
Yeast gene YFR026C
  level of expressed mRNA in the presence of chemical substance / level in the absence of chemical substance: 1.0
Yeast gene YGL037C
  The level of expressed mRNA in the presence of chemical substance/The level of expressed mRNA in the absence of chemical substance: 6.5
Yeast gene YGL047W
  The level of expressed mRNA in the presence of chemical substance/The level of expressed mRNA in the absence of chemical substance: 1.6
Yeast gene YGL053W
  The level of expressed mRNA in the presence of chemical substance/The level of expressed mRNA in the absence of chemical substance: 1.2
Yeast gene YGL088W
  level of expressed mRNA in the presence of chemical substance / level in the absence of chemical substance: 0.9
Yeast gene YGL121C
  The level of expressed mRNA in the presence of chemical substance/The level of expressed mRNA in the absence of chemical substance: 1.4
Yeast gene YGL199C
  The level of expressed mRNA in the presence of chemical substance/The level of expressed mRNA in the absence of chemical substance: 1.7
Yeast gene YGR038W
  level of expressed mRNA in the presence of chemical substance / level in the absence of chemical substance: 3.5
Yeast gene YGR101W
  The level of expressed mRNA in the presence of chemical substance/The level of expressed mRNA in the absence of chemical substance: 1.2
Yeast gene YGR110W
  The level of expressed mRNA in the presence of chemical substance/The level of expressed mRNA in the absence of chemical substance: 2.2
Yeast gene YGR130C
  The level of expressed mRNA in the presence of chemical substance/The level of expressed mRNA in the absence of chemical substance: 0.6
Yeast gene YGR139W
  level of expressed mRNA in the presence of chemical substance / level in the absence of chemical substance: 0.8
Yeast gene YGR154C
  The level of expressed mRNA in the presence of chemical substance/The level of expressed mRNA in the absence of chemical substance: 2.2
Yeast gene YGR221C
  The level of expressed mRNA in the presence of chemical substance/The level of expressed mRNA in the absence of chemical substance: 0.9
Yeast gene YGR243W
  level of expressed mRNA in the presence of chemical substance / level in the absence of chemical substance: 9.4
Yeast gene YGR293C
  level of expressed mRNA in the presence of chemical substance / level in the absence of chemical substance: 1.6
Yeast gene YHL006C
  level of expressed mRNA in the presence of chemical substance / level in the absence of chemical substance: 0.9
Yeast gene YHR095W
  level of expressed mRNA in the presence of chemical substance / level in the absence of chemical substance: 1.5
Yeast gene YHR105W
  level of expressed mRNA in the presence of chemical substance / level in the absence of chemical substance: 2.4
Yeast gene YHR138C
  The level of expressed mRNA in the presence of chemical substance/The level of expressed mRNA in the absence of chemical substance: 2.2
Yeast gene YHR181W
  level of expressed mRNA in the presence of chemical substance / level in the absence of chemical substance: 2.4
Yeast gene YHR199C
  The level of expressed mRNA in the presence of chemical substance/The level of expressed mRNA in the absence of chemical substance: 3.2
Yeast gene YIL023C
  The level of expressed mRNA in the presence of chemical substance/The level of expressed mRNA in the absence of chemical substance: 2.1
Yeast gene YIL041W
  The level of expressed mRNA in the presence of chemical substance/The level of expressed mRNA in the absence of chemical substance: 2.1
Yeast gene YIL087C
  The level of expressed mRNA in the presence of chemical substance/The level of expressed mRNA in the absence of chemical substance: 3.4
Yeast gene YIL127C
  level of expressed mRNA in the presence of chemical substance / level in the absence of chemical substance: 0.2
Yeast gene YJL017W
  level of expressed mRNA in the presence of chemical substance / level in the absence of chemical substance: 3.5
Yeast gene YJL037W
  level of expressed mRNA in the presence of chemical substance / level in the absence of chemical substance: 1.4
Yeast gene YJL057C
  The level of expressed mRNA in the presence of chemical substance/The level of expressed mRNA in the absence of chemical substance: 1.6
Yeast gene YJL066C
  The level of expressed mRNA in the presence of chemical substance/The level of expressed mRNA in the absence of chemical substance: 1.2
Yeast gene YJL082W
  The level of expressed mRNA in the presence of chemical substance/The level of expressed mRNA in the absence of chemical substance: 2.4
